# From patent EP0357495A2, “3'Azido-3'-deoxythymidine (AZT) derivatives active against the AIDS virus” (IRE-CELLTARG S.A., priority 1988, dated 1990)
# What was measured:
# [1] = system: virus HIV-1 (souche HTLV-IIIB); experiment: viral antigen expression in HIV-infected HUT-78 cells (indirect immunofluorescence, laser cytofluorescence); format: cell-based
# Description: Les produits (AZT et AZT-5′ hémisuccinyl) à différentes concentrations ont été mis en présence de cellules HUT-78 infectées par le virus HIV-1 (souche HTLV-IIIB) à une multiplicité d'infection de 0.4. Tous les quatre jours, 3/4 du milieu ont été remplacés par du milieu frais. Après douze jours, l'expression des antigènes viraux a été mesurée par immunofluorescence indirecte à l'aide d'un sérum anti-HIV-I positif, et par cytofluorescence laser, tel que décrit par Pauwels et al. J. Virol. Meth. 16, 171-185 (1987).
# Des résultats sont exprimés dans le tableau 3 en ED₅₀ et en pourcentage d'effet protecteur selon la formule : [formula] TABLEAU 3
# [2] = system: lignées cellulaires continues; experiment: in vitro toxicity on continuous cell lines (MTT method); format: cell-based; conditions: all cell lines tested, comparison with AZT; tableau 8 is an image
# Description: Dans le but d'évaluer la toxicité du dérivé 5′hémisuccinyl de l'AZT, des expériences ont été réalisées sur différentes lignées cellulaires continues.
# L'AZT et son dérivé 5′hémisuccinyl à différentes concentrations ont été mis en présence de cellules en phase de croissance. Le nombre de cellules vivantes a été déterminé par la méthode au MTT après 1, 2, 3 et 4 jours de culture. La cytotoxicité a été mesurée et est exprimée sous forme de CD₅₀.
# Les lignées cellulaires continues utilisées sont les suivantes : - Cellules en suspension : [formula] - Cellules adhérentes : Hep-G2 : hépatocarcinome humain Hep-2 : carcinome épidermoïde humain
# Les résultats sont repris au tableau 8.
# [3] = system: virus MSV Moloney sarcoma virus; experiment: in vivo activity in MSV-infected NMRI mice (survival, tumour appearance); set-up: species or system souris NMRI
# Description: L'AZT et ses dérivés selon l'invention ont été testés in vivo chez la souris NMRI (souriceaux de 2 jours) infectée par le virus MSV Moloney sarcoma virus). La drogue est adminitrée i.p. pendant 5 jours dans un volume de 25 µl/g de poids corporel. Le virus est inoculé dans la cuisse gauche de l'animal deux heures après la première administration de drogue. Les animaux sont contrôlés tous les jours selon trois critères : survie, apparition de la tumeur et poids (toxicité) pendant 50 jours. Les résultats sont repris au tableau 7 et dans les figures 8 à 11. [formula]
# On entend par temps médian de survie le temps où la moitié des souris sont encore vivantes. [formula] Tableau 7
# [4] = system: cellules MT4; experiment: cytotoxicity on non-infected MT4 cells (MTT method); format: cell-based
# Description: Les produits (AZT, AZT-5′ hémisuccinyl et AZT 5′-leucyl) à différentes concentrations ont été mis en présence de cellules MT4 (4 X 10⁴ cellules par puits de microtray) infectées ou non avec 100 CCID₅₀ de virus HIV-1 (souche HTLV-IIIB). La CCID₅₀ représente la quantité de virus à rajouter pour obtenir une infection de 50 % des cellules (dose infectieuse de cellules en culture 50).
# Après cinq jours d'incubation à 37°C, le nombre de cellules vivantes a été déterminé par la méthode au MTT, basée sur la réduction par les cellules vivantes du 3′-(4, 5-diméthylthiazol-2-yl)-2,5-diphényltétrazoliumbromide, jaune, en formazan, bleu. L'activité antivirale et la cytotoxicité sont exprimées sous forme de ED₅₀ et de CD₅₀. La CD₅₀ représente la dose qui tue 50 % des cellules non infectées et la ED₅₀ représente la dose qui protège 50 % des cellules de l'infection virale.
# En effet l'AZT entre en compétition avec la thymidine au niveau des enzymes de phosphorylation qui vont le transformer en AZT triphosphate (AZT TP) qui est la forme active du produit. Un excès de thymidine réduit donc très fortement l'activité de l'AZT, ce qui se traduit par une ED₅₀ plus élevée. Par conséquent, si le dérivé de l'AZT doit son activité à la libération d'AZT qui à son tour est phosphorylé en AZT TP, un excès de thymidine aura également pour effet d'élever la ED₅₀ du dérivé. La thymidine étant cytotoxique à la concentration utilisée, il est nécessaire de rajouter de la 2′déoxycytidine pour empêcher cette toxicité.
# Les protocoles expérimentaux sont ceux décrits à l'exemple 9 3.1) et 9 3).
# [5] = in vivo toxicity, intraperitoneal, 5-day-old NMRI mice; set-up: species or system souriceaux NMRI; conditions: AZT-5′hémisuccinyl, i.p.
# Description: L'AZT et son dérivé 5′hémisuccinyl ont été administrés par voie infra-péritonéale à de souriceaux NMRI âgés de 5 jours (100 µl/g de poids corporel). Les animaux ont été contrôlés tous les jours selon 2 critères : survie et poids pendant 25 jours.
# Les résultats sont repris au tableau 9. Les souriceaux traités n'ont pas montre de différence significative dans la prise de poids par rapport aux contrôles. Tableau 9
# [6] = system: cellules de la moëlle osseuse; experiment: toxicity on bone marrow cells (colony count, day 7); format: cell-based; conditions: bone marrow cells of a healthy donor, semi-solid medium with GMCSF, colonies at day 7
# Description: Des cellules ont été isolées à partir d'un prélèvement de moëlle osseuse chez un donneur sain. Elles ont été mises en culture en milieu semi-solide (agar) additionné de Granulocyte-Macrophage-Colony Stimulating Factor (GMCSF) en présence d'AZT et d'AZT 5′hémisuccinyl à différentes concentrations. Le nombre de cellules ayant donné naissance à une colonie a été déterminé par comptage de colonies au jour 7.
# La toxicité du dérivé est de l'ordre de 10 fois plus faible que celle de l'AZT.
# [7] = AZT-5′ hémisuccinyl 6.8 mg/kg/jour i.p. 5 days
# [8] = AZT-5′ hémisuccinyl 34 mg/kg/jour i.p. 5 days
# [9] = AZT-5′ hémisuccinyl 170 mg/kg/jour i.p. 5 days
smiles,measurement,setting,value
"Cc1cn([C@H]2C[C@H](N=[N+]=[N-])[C@@H](COC(=O)CCC(=O)O)O2)c(=O)[nH]c1=O [AZT 5′hémisuccinyl, 5′-hémisuccinyl-3′-azido-3′-déoxythymidine]",Pourcentage d'effet protecteur,"[1]; HUT-78, day 12, concentration 0.022 µM",-23%
same,Pourcentage d'effet protecteur,"[1]; HUT-78, day 12, concentration 0.11 µM",48%
same,Pourcentage d'effet protecteur,"[1]; HUT-78, day 12, concentration 0.54 µM",21%
same,Pourcentage d'effet protecteur,"[1]; HUT-78, day 12, concentration 2.71 µM",72%
same,ED₅₀,"[1]; HUT-78 cells, multiplicity of infection 0.4, day 12","ED₅₀ AZT-5′hémisuccinyl = 1,77 µM"
same,toxicité sur lignées cellulaires continues (in words),[2],moins toxique que l'AZT
same,% ILS,[3]; [7],20.2%
same,% ITL,[3]; [7],52.4%
same,Temps moyen d'apparition de la tumeur,[3]; [7],7.3 jours
same,Temps moyen de survie,[3]; [7],11.5 jours
same,Temps médian d'apparition de la tumeur,[3]; [7],6.8 jours
same,Temps médian de survie,[3]; [7],11.0 jours
same,% ILS,[3]; [8],>446%
same,% ITL,[3]; [8],145%
same,Temps moyen d'apparition de la tumeur,[3]; [8],>25.5 jours
same,Temps moyen de survie,[3]; [8],>41 jours
same,Temps médian d'apparition de la tumeur,[3]; [8],11 jours
same,Temps médian de survie,[3]; [8],>50 jours
same,% ILS,[3]; [9],42.1%
same,% ITL,[3]; [9],257%
same,Temps moyen d'apparition de la tumeur,[3]; [9],>23 jours
same,Temps moyen de survie,[3]; [9],>22.7 jours
same,Temps médian d'apparition de la tumeur,[3]; [9],16 jours
same,Temps médian de survie,[3]; [9],13 jours
same,"toxicité (compared with AZT, in words)",[4]; comparison with AZT,considérablement inférieure
same,CD₅₀,"[4]; tableau 2, non-infected MT4 cells, 5 days at 37°C, dose that kills 50 % of cells",196 µM
same,CD₅₀,"[4]; tableau 4, MT-4, with thymidine (250µM) + 2′déoxy-cytidine (500 µM)",362 µM
same,CD₅₀,"[4]; tableau 4, MT-4, without thymidine / 2′déoxycytidine",295 µM
same,Survivants au jour 25,[5]; dose 1 g/kg poids corporel (équivalent AZT 0.73),100%
same,Survivants au jour 25,[5]; dose 2 g/kg poids corporel (équivalent AZT 1.46),100%
same,Survivants au jour 25,[5]; dose 3 g/kg poids corporel (équivalent AZT 2.2),50%
same,mortalité/jour,"[5]; dose 3 g/kg poids corporel (équivalent AZT 2.2), au jour 1",(50 % au jour 1)
same,toxicité plus faible que celle de l'AZT,[6],~10 fois
